System: uterine fibroids
Test: Phase 2 study of orally administered Formulation B in women with uterine fibroids
Assay type: in vivo, human
Text: After menses occurred, a second 18 week course of treatment followed.

`COCC(=O)[C@@]1(OC(C)=O)CC[C@H]2[C@@H]3CCC4=CC(=O)CCC4=C3[C@@H](c3ccc(N(C)C)cc3)C[C@@]21C` [CDB-4124, 21-methoxy-17a-acetoxy-11β-(4 N, N-dimethylaminophenyl)-19-norpregna-4,9-diene-3,20-dione] was tested, and the “reduction in fibroid size (volume) compared to baseline” value (oral 12 mg once per day, after two 18 week cycles, median, p=0.0004 vs placebo) was 64.9%, the “subjects who achieved amenorrhea” value (oral 12 mg once per day, end of second 18 week course (36 weeks total active treatment)) was 100% and the “improvement in Uterine Fibroid Symptom Severity Score (UFSQOL), LOCF median” value (oral 12 mg once per day, p=0.0211 vs placebo) was 70.9%. For the same compound, the “subjects who achieved amenorrhea” value (vaginally treated subjects (comparison)) was 50%.
